Assay results from US10364216B2, “Alkenyl sulfate ester or salt thereof” (Kao Corporation, priority 2013, dated 2019).
Structures can show the parent of a compound that is named as a salt.

Test: Evaluation of sweetness (3)/(4): sweetness intensity over time against sucrose standard solutions
Assay type: in vivo, human
Experimental: (§1) To seven examiners, 4 kinds of 10 mL aqueous sucrose standard solutions (2.5, 5.0, 7.5 and 10.0 wt %) were presented. The examiners kept each of the solutions in their mouth for 5 seconds or so, and then spat the solution out, and were asked to consider the sweetness intensity at that time (0 to 15) to be 2.5, 5, 7.5 and 10, respectively. Next, the examiners kept 10 mL solution of 10 mM trans-3-octenyl sulfate in their mouth for 5 seconds or so, and then spat the solution out, and compared the sweetness intensity at that time with that of the aqueous sucrose standard solution, and evaluated the sweetness intensity with a number in a range of 0 to 15. Then, the examiners kept 10 mL pure water for 5 minutes at an interval of 30 seconds, and then spat the solution out, and evaluated the sweetness intensity at that time in the same manner.
as §1, with “four” for “4”, “cis-3-octenyl” for “trans-3-octenyl”, “water in their mouth” for “water”

CCCC/C=C/CCOS(=O)(=O)O [trans-3-octenyl sulfate]
Examiners who recognized the sweetness by virtue of intake of water (10 mL of 10 mM solution, then pure water every 30 seconds): Seven out of the seven | Duration of sweetness (10 mL of 10 mM solution, then pure water every 30 seconds for 5 minutes): the sweetness lasted for a certain time | Sweetness intensity (mean) (Time 0 minute, 10 mL of 10 mM solution kept 5 seconds, scale 0 to 15 vs sucrose standards, seven examiners): 0.0 | Sweetness intensity (mean) (Time 0.5 minute, on keeping 10 mL pure water, after 10 mM solution, scale 0 to 15): 1.7 | Sweetness intensity (mean) (Time 1 minute, on keeping 10 mL pure water, after 10 mM solution, scale 0 to 15): 3.6 | Sweetness intensity (mean) (Time 1.5 minute, on keeping 10 mL pure water, after 10 mM solution, scale 0 to 15): 3.9 | Sweetness intensity (mean) (Time 2 minute, on keeping 10 mL pure water, after 10 mM solution, scale 0 to 15): 3.6 | Sweetness intensity (mean) (Time 2.5 minute, on keeping 10 mL pure water, after 10 mM solution, scale 0 to 15): 3.0 | Sweetness intensity (mean) (Time 3 minute, on keeping 10 mL pure water, after 10 mM solution, scale 0 to 15): 2.1 | Sweetness intensity (mean) (Time 3.5 minute, on keeping 10 mL pure water, after 10 mM solution, scale 0 to 15): 1.1 | Sweetness intensity (mean) (Time 4 minute, on keeping 10 mL pure water, after 10 mM solution, scale 0 to 15): 0.8 | Sweetness intensity (mean) (Time 4.5 minute, on keeping 10 mL pure water, after 10 mM solution, scale 0 to 15): 0.5 | Sweetness intensity (mean) (Time 5 minute, on keeping 10 mL pure water, after 10 mM solution, scale 0 to 15): 0.6
